Read-outs that look alike come from different tables or passages of the source.
Assays:
[1] = for CL/F (oral clearance): all women not receiving lopinavir/ritonavir, median; for C0: pre-dose
[2] = in vivo
[3] = previous studies incl. initial analysis of P1026s data; cited from earlier work
clinical = settings: female, human, in vivo
[4] = non-pregnant adults; cited from earlier work
CYP3A4 = settings: cited from earlier work
[5] = postpartum, with LPV/r, median (IQR)
[6] = postpartum, without LPV/r, other regimens, median (IQR)
[7] = postpartum, without LPV/r, with ATV/r, median (IQR)
[8] = third trimester, with LPV/r, median (IQR)
[9] = third trimester, without LPV/r, other regimens, median (IQR)
[10] = third trimester, without LPV/r, with ATV/r, median (IQR)

## C[C@H](Cn1cnc2c(N)ncnc21)OCP(=O)(O)O [Tenofovir]
[1]; female, human, in vivo, C24, third trimester, without LPV/r, with ATV/r, 24 hour post-dose, median (IQR)
  concentration at 24 h: 47 ng/mL
[1]; female, human, in vivo, t1/2, postpartum, with LPV/r, median (IQR)
  half-life: 12.5 h
[1]; female, human, in vivo, t1/2, third trimester, with LPV/r, median (IQR)
  half-life: 17.5 h
[1]; postpartum
  CL/F (oral clearance): 48 L/h
[1]; [5]
  CL/F: 49 (36 – 75) L/hr
  Vd/F: 1224 (643 – 1312) L/hr
  C0: 59.4 (5.0 – 77.8) ng/mL
[1]; [6]
  CL/F: 49 (30 – 58) L/hr
  Vd/F: 757 (514 – 1133) L/hr
  C0: 74 (50 – 118) ng/mL
[1]; [7]
  CL/F: 48 (38 – 63) L/hr
  Vd/F: 949 (676 – 1246) L/hr
  C0: 60 (31 – 93) ng/mL
[1]; third trimester
  CL/F (oral clearance): 61 L/h
[1]; [8]
  CL/F: 46 (40 – 60) L/hr
  Vd/F: 1103 (973 – 1312) L/hr
  C0: 70 (53 – 85) ng/mL
[1]; [9]
  CL/F: 57 (47 – 62) L/hr
  Vd/F: 1159 (1037 – 1709) L/hr
  t1/2: 15.9 (14.3 – 19.2) hr
  C0: 54 (42 – 67) ng/mL
[1]; [10]
  CL/F: 64 (57 – 85) L/hr
  Vd/F: 1284 (1120 – 2181) L/hr
  C0: 48 (36 – 59) ng/mL
[2]; female, human
  AUC0–24 (exposure) lower in third trimester compared to postpartum: 27%
  decrease in AUC0–24 during third trimester compared to postpartum: 25%
  increase in CL/F during third trimester compared to postpartum: 33%
[2]; female, human, po
  oral clearance higher in third trimester compared to postpartum: 27%
[2]
  differences in AUC0–24, third trimester vs postpartum: did not reach statistical significance
[3]
  clearance higher in third trimester of pregnancy compared to postpartum: 22–39%
  exposure lower in third trimester of pregnancy compared to postpartum: 20–33%
clinical; AUC0–24
  AUC(0-t): 2200 ng·h/mL
clinical; Cmax
  Cmax: 257 ng/mL
[4]
  exposure increased with concomitant lopinavir/ritonavir: 32%

## CC(C)(C)NC(=O)[C@@H]1C[C@@H]2CCCC[C@@H]2CN1C[C@@H](O)[C@H](Cc1ccccc1)NC(=O)[C@H](CC(N)=O)NC(=O)c1ccc2ccccc2n1 [saquinavir]
CYP3A4
  CYP3A4 inhibition: weak inhibition

From publication PMC8448937 (Journal of clinical pharmacy and therapeutics, 2021)
